Measured values as given in US10844077B2, “Thiazolyl-containing compounds for treating proliferative diseases” (Dana-Farber Cancer Institute, Inc., priority 2014, dated 2020).
Like-named read-outs stand apart in the source and are kept apart here.

Experiments:
Type in all cases: binding
[1] = molecular target: broad panel of kinases (Homo sapiens, UniProt P07949); conditions: RET; 1 μM
[2] = molecular target: broad panel of kinases (Homo sapiens, UniProt O00750); conditions: PIK3C2B; 1 μM
[3] = molecular target: broad panel of kinases (Homo sapiens, UniProt O43353); conditions: RIPK2; 1 μM
[4] = molecular target: broad panel of kinases (Homo sapiens, UniProt Q8IYT8); conditions: ULK2; 1 μM
[5] = molecular target: broad panel of kinases (Homo sapiens, UniProt P42336, Q546K); conditions: PIK3CA(Q546K); 1 μM
[6] = molecular target: broad panel of kinases (Homo sapiens, UniProt P51957); conditions: NEK4; 1 μM
[7] = molecular target: broad panel of kinases (Homo sapiens, UniProt O94806); conditions: PRKD3; 1 μM
[8] = molecular target: broad panel of kinases (Homo sapiens, UniProt Q96BR1); conditions: SGK3; 1 μM
[9] = molecular target: broad panel of kinases (Homo sapiens, UniProt P07947); conditions: YES; 1 μM
Chain of broad panel of kinases (Homo sapiens, UniProt P07947) (P07947 2-543 limits assumed): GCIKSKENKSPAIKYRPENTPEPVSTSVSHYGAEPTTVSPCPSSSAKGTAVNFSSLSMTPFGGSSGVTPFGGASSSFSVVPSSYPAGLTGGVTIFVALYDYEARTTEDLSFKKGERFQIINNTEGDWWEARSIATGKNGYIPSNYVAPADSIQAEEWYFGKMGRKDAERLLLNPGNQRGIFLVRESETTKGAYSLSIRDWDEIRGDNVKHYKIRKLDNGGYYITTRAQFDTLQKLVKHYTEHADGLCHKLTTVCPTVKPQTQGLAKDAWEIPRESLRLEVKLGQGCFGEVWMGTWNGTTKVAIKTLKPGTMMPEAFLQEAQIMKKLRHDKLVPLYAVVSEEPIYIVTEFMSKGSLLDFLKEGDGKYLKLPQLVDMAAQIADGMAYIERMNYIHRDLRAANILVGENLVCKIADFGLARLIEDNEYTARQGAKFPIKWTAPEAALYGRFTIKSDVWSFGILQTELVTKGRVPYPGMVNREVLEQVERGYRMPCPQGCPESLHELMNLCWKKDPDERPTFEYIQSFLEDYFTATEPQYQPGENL

[10] = molecular target: broad panel of kinases (Homo sapiens, UniProt Q92918); conditions: HPK1; 1 μM
[11] = molecular target: broad panel of kinases (Homo sapiens, UniProt P22607, G697C); conditions: FGFR3(G697C); 1 μM
[12] = molecular target: broad panel of kinases (Homo sapiens, UniProt Q9Y5S2); conditions: MRCKB; 1 μM
[13] = molecular target: broad panel of kinases (Homo sapiens, UniProt P27037); conditions: ACVR2A; 1 μM
Chain of broad panel of kinases (Homo sapiens, UniProt P27037) (P27037 20-513 limits assumed): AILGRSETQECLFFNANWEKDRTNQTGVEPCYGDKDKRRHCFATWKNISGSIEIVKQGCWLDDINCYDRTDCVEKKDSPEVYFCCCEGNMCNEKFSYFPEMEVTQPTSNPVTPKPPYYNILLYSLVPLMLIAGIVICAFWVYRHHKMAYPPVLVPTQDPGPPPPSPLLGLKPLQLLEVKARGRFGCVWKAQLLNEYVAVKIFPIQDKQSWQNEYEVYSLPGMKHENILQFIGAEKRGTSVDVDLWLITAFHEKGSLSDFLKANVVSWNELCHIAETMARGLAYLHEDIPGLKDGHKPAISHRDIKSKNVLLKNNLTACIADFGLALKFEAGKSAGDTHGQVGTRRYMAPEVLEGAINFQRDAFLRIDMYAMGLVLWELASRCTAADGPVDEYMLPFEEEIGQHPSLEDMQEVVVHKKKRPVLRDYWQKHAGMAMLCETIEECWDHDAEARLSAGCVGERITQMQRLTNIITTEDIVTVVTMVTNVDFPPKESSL

[14] = molecular target: broad panel of kinases (Homo sapiens, UniProt Q15349); conditions: 1 μM
[15] = molecular target: broad panel of kinases (Homo sapiens, UniProt Q9UM73); conditions: ALK; 1 μM
Chain of broad panel of kinases (Homo sapiens, UniProt Q9UM73) (Q9UM73 19-1620 limits assumed): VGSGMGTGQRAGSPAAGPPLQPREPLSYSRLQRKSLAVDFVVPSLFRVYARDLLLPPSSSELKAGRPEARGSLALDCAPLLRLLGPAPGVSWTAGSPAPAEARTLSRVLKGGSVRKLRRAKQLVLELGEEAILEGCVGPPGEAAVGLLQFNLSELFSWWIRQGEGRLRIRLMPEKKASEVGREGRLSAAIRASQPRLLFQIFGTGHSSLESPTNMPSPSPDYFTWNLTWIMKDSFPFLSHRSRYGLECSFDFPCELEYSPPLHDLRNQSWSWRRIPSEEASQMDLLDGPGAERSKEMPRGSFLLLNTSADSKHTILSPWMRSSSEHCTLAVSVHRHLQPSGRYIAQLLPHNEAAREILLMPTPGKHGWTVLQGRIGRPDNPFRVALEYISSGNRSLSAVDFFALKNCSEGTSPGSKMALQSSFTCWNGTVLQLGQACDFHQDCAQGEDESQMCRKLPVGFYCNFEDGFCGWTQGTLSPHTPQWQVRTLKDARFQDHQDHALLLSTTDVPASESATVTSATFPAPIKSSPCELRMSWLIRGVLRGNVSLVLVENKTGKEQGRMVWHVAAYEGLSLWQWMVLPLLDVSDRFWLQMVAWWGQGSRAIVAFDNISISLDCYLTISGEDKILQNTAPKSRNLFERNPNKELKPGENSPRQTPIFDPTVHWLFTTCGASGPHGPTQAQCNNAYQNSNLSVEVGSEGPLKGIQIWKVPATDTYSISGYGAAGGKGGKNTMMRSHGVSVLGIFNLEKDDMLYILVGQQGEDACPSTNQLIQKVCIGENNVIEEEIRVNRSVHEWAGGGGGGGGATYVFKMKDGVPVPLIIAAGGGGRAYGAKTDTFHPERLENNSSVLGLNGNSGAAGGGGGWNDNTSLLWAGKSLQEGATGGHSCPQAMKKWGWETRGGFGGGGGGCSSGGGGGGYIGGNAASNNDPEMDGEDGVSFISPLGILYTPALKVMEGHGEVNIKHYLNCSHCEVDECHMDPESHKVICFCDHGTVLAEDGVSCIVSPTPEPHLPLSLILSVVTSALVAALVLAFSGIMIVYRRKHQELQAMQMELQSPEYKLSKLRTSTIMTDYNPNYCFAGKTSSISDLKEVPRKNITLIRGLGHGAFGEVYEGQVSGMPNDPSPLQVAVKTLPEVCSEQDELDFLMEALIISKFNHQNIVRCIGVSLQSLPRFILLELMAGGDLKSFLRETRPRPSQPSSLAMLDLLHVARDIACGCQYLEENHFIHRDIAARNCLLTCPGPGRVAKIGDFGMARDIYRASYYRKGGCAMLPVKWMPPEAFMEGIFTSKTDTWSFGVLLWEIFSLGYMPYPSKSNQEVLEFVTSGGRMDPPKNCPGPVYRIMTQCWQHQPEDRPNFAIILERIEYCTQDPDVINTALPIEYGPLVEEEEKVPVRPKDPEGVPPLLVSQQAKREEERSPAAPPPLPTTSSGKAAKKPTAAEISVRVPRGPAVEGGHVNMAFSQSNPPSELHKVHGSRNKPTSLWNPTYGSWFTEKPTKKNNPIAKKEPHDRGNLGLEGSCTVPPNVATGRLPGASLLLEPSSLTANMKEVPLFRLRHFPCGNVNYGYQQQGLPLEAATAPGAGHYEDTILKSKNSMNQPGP

[16] = molecular target: broad panel of kinases (Homo sapiens, UniProt P00519); conditions: 1 μM
[17] = molecular target: broad panel of kinases (Homo sapiens, UniProt O60285); conditions: ARK5; 1 μM
[18] = molecular target: broad panel of kinases (Homo sapiens, UniProt Q02750); conditions: MEK1; 1 μM
[19] = molecular target: broad panel of kinases (Homo sapiens, UniProt P49336); conditions: CDK8; 1 μM
[20] = molecular target: broad panel of kinases (Homo sapiens, UniProt P15056); conditions: BRAF; 1 μM
Chain of broad panel of kinases (Homo sapiens, UniProt P15056) (P15056 2-766 limits assumed): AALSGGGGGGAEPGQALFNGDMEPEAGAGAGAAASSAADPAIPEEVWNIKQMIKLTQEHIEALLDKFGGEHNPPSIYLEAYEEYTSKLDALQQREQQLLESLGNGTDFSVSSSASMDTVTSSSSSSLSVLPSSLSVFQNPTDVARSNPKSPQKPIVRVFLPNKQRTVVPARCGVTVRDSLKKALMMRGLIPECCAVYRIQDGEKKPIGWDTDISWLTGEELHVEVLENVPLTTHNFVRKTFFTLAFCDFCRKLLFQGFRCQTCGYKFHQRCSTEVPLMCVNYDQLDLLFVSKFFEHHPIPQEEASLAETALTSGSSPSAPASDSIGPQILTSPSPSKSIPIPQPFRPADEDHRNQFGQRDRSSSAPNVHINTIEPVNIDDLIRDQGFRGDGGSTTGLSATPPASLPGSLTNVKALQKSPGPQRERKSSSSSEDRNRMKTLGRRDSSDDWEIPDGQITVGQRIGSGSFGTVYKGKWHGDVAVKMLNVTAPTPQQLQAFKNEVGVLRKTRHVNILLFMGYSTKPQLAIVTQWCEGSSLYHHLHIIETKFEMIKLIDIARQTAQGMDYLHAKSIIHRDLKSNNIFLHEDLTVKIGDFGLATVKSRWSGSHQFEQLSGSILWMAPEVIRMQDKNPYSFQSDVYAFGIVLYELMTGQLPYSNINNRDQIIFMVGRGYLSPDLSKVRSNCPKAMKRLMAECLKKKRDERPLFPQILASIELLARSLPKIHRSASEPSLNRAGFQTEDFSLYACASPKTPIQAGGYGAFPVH

[21] = molecular target: broad panel of kinases (Homo sapiens, UniProt P29322); conditions: EPHA8; 1 μM
Chain of broad panel of kinases (Homo sapiens, UniProt P29322) (P29322 28-1005 limits assumed): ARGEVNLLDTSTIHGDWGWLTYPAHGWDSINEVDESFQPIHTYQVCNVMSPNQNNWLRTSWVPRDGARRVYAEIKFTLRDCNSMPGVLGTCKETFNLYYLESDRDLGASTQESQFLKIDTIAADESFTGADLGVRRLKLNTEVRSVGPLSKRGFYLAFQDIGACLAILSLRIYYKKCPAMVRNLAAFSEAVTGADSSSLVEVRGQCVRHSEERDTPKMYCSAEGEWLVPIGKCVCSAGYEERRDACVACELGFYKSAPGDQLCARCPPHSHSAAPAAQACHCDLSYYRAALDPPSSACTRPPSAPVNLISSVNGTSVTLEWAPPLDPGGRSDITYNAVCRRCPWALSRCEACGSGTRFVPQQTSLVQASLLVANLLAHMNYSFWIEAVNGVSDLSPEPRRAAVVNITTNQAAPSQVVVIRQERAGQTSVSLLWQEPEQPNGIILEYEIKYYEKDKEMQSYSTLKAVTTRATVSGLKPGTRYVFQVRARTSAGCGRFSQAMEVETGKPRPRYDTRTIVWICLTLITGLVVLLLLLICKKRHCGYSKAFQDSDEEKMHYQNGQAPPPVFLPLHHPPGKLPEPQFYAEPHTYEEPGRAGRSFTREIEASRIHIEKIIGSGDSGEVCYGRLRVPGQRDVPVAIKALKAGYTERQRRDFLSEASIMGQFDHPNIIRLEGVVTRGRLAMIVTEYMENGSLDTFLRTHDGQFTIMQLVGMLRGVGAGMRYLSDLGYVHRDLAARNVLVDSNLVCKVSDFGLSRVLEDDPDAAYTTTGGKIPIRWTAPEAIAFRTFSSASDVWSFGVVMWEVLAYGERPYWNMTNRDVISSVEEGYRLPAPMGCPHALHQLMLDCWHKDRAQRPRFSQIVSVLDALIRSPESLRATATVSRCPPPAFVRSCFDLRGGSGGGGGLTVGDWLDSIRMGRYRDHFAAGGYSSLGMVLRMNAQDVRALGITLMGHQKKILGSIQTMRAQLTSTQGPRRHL

[22] = molecular target: broad panel of kinases (Homo sapiens, UniProt Q9BX84); conditions: TRPM6; 1 μM
[23] = molecular target: broad panel of kinases (Homo sapiens, UniProt O75385); conditions: ULK1; 1 μM
[24] = molecular target: broad panel of kinases (Homo sapiens, UniProt Q16584); conditions: MLK3; 1 μM
[25] = molecular target: broad panel of kinases (Homo sapiens, UniProt P31751); conditions: AKT2; 1 μM
[26] = molecular target: broad panel of kinases (Homo sapiens, UniProt P57058); conditions: HUNK; 1 μM
[27] = molecular target: broad panel of kinases (Homo sapiens, UniProt Q08881); conditions: ITK; 1 μM
[28] = molecular target: broad panel of kinases (Homo sapiens, UniProt P48729); conditions: CSNK1A1; 1 μM
Chain of broad panel of kinases (Homo sapiens, UniProt P48729) (P48729 2-337 limits assumed): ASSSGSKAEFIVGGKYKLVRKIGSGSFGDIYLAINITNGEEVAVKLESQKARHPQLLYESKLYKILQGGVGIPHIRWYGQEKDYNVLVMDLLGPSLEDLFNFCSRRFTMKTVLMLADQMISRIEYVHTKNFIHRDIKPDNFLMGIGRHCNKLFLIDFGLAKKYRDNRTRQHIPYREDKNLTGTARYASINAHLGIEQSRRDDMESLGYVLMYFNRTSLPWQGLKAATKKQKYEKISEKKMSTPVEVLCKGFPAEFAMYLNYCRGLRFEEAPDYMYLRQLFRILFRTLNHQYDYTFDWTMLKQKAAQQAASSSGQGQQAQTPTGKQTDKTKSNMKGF

[29] = molecular target: broad panel of kinases (Homo sapiens, UniProt P80192); conditions: MLK1; 1 μM
[30] = molecular target: broad panel of kinases (Homo sapiens, UniProt P24941); conditions: CDK2; 1 μM
[31] = molecular target: broad panel of kinases (Homo sapiens, UniProt Q00535); conditions: CDK5; 1 μM
[32] = molecular target: broad panel of kinases (Homo sapiens, UniProt Q9UBE8); conditions: NLK; 1 μM
[33] = molecular target: broad panel of kinases (Homo sapiens, UniProt Q16513); conditions: PKN2; 1 μM
[34] = molecular target: broad panel of kinases (Homo sapiens, UniProt P42336, E545K); conditions: PIK3CA(E545K); 1 μM
[35] = molecular target: broad panel of kinases (Homo sapiens, UniProt Q6ZN16); conditions: MAP3K15; 1 μM
[36] = molecular target: broad panel of kinases (Homo sapiens, UniProt Q5S007); conditions: LRRK2; 1 μM
[37] = molecular target: broad panel of kinases (Homo sapiens, UniProt P49674); conditions: CSNK1E; 1 μM

Row | SMILES | percent of control binding remaining (lower = stronger binding) [1] [%] | percent of control binding remaining (lower = stronger binding) [2] [%] | percent of control binding remaining (lower = stronger binding) [3] [%] | percent of control binding remaining (lower = stronger binding) [4] [%] | percent of control binding remaining (lower = stronger binding) [5] [%] | percent of control binding remaining (lower = stronger binding) [6] [%] | percent of control binding remaining (lower = stronger binding) [7] [%] | percent of control binding remaining (lower = stronger binding) [8] [%] | percent of control binding remaining (lower = stronger binding) [9] [%] | percent of control binding remaining (lower = stronger binding) [10] [%] | percent of control binding remaining (lower = stronger binding) [12] [%] | percent of control binding remaining (lower = stronger binding) [13] [%] | percent of control binding remaining (lower = stronger binding) ([14]; RSK3(Kin.Dom.1-N-terminal)) [%] | percent of control binding remaining (lower = stronger binding) ([14]; RSK3(Kin.Dom.2-C-terminal)) [%] | percent of control binding remaining (lower = stronger binding) [15] [%] | percent of control binding remaining (lower = stronger binding) [17] [%] | percent of control binding remaining (lower = stronger binding) [18] [%] | percent of control binding remaining (lower = stronger binding) [19] [%] | percent of control binding remaining (lower = stronger binding) [20] [%] | percent of control binding remaining (lower = stronger binding) [21] [%] | further results
1 | C=CC(=O)N1CC[C@H](Nc2nc(CN3CCOCC3)cc(Nc3ncc(C(=O)Nc4c(C)cccc4C)s3)n2)C1 [Example I-2] | 100 | 86 | 14 | 89 | 83 | 100 | 81 | 100 | 0 | 51 | 89 | 76 | 93 | 100 | 97 | 99 | 67 | 93 | 4.4 | 0.75 | percent of control binding remaining (lower = stronger binding) [11]: 100%; percent of control binding remaining (lower = stronger binding) ([16]; ABL1-nonphosphorylated): 0.05%; percent of control binding remaining (lower = stronger binding) ([16]; ABL1-phosphorylated): 0%; percent of control binding remaining (lower = stronger binding) [22]: 61%; percent of control binding remaining (lower = stronger binding) [23]: 79%; percent of control binding remaining (lower = stronger binding) [24]: 100%; percent of control binding remaining (lower = stronger binding) [25]: 88%; percent of control binding remaining (lower = stronger binding) [26]: 100%; percent of control binding remaining (lower = stronger binding) [27]: 100%; percent of control binding remaining (lower = stronger binding) [28]: 100%; percent of control binding remaining (lower = stronger binding) [29]: 89%; percent of control binding remaining (lower = stronger binding) [30]: 100%; percent of control binding remaining (lower = stronger binding) [31]: 100%; percent of control binding remaining (lower = stronger binding) [32]: 11%; percent of control binding remaining (lower = stronger binding) [33]: 84%; percent of control binding remaining (lower = stronger binding) [34]: 94%; percent of control binding remaining (lower = stronger binding) [35]: 92%; percent of control binding remaining (lower = stronger binding) [36]: 94%; percent of control binding remaining (lower = stronger binding) [37]: 84%
2 | C=CC(=O)N1CC[C@H](Nc2nccc(Nc3ncc(C(=O)Nc4c(C)cccc4C)s3)n2)C1 [Example I-3] | 86 | 47 | 31 | 91 | 100 | 100 | 81 | 100 | 0 | 61 | 100 | 82 | 89 | 97 | 83 | 100 | 100 | 98 | 6.8 | 0.45 | % change compared to control [11]: 99%; % change compared to control ([16]; ABL1-nonphosphorylated): 0.1%; % change compared to control ([16]; ABL1-phosphorylated): 0%; percent of control binding remaining (lower = stronger binding) [22]: 63%; percent of control binding remaining (lower = stronger binding) [23]: 86%; percent of control binding remaining (lower = stronger binding) [24]: 85%; percent of control binding remaining (lower = stronger binding) [25]: 100%; percent of control binding remaining (lower = stronger binding) [26]: 83%; percent of control binding remaining (lower = stronger binding) [27]: 98%; percent of control binding remaining (lower = stronger binding) [28]: 100%; percent of control binding remaining (lower = stronger binding) [29]: 92%; percent of control binding remaining (lower = stronger binding) [30]: 100%; percent of control binding remaining (lower = stronger binding) [31]: 100%; percent of control binding remaining (lower = stronger binding) [32]: 9.4%; percent of control binding remaining (lower = stronger binding) [33]: 100%; percent of control binding remaining (lower = stronger binding) [34]: 100%; percent of control binding remaining (lower = stronger binding) [35]: 100%; percent of control binding remaining (lower = stronger binding) [36]: 100%; percent of control binding remaining (lower = stronger binding) [37]: 96%
